From ChEMBL document CHEMBL1201862, “PubChem BioAssay data set” (2004)
The source made the active and inactive calls.

Assays:
[1] = molecular target: Bifunctional protein GlmU (Mycobacterium tuberculosis, UniProt P9WMN3); experiment: Inhibitors of Mycobacterial Glucosamine-1-phosphate acetyl transferase (GlmU). Secondary screen.; set-up: species or system Mycobacterium tuberculosis H37Rv
[2] = molecular target: T1, Histone-lysine N-methyltransferase NSD2 (Homo sapiens, UniProt O96028); type: biochemical
T1 sequence (O96028 whole entry): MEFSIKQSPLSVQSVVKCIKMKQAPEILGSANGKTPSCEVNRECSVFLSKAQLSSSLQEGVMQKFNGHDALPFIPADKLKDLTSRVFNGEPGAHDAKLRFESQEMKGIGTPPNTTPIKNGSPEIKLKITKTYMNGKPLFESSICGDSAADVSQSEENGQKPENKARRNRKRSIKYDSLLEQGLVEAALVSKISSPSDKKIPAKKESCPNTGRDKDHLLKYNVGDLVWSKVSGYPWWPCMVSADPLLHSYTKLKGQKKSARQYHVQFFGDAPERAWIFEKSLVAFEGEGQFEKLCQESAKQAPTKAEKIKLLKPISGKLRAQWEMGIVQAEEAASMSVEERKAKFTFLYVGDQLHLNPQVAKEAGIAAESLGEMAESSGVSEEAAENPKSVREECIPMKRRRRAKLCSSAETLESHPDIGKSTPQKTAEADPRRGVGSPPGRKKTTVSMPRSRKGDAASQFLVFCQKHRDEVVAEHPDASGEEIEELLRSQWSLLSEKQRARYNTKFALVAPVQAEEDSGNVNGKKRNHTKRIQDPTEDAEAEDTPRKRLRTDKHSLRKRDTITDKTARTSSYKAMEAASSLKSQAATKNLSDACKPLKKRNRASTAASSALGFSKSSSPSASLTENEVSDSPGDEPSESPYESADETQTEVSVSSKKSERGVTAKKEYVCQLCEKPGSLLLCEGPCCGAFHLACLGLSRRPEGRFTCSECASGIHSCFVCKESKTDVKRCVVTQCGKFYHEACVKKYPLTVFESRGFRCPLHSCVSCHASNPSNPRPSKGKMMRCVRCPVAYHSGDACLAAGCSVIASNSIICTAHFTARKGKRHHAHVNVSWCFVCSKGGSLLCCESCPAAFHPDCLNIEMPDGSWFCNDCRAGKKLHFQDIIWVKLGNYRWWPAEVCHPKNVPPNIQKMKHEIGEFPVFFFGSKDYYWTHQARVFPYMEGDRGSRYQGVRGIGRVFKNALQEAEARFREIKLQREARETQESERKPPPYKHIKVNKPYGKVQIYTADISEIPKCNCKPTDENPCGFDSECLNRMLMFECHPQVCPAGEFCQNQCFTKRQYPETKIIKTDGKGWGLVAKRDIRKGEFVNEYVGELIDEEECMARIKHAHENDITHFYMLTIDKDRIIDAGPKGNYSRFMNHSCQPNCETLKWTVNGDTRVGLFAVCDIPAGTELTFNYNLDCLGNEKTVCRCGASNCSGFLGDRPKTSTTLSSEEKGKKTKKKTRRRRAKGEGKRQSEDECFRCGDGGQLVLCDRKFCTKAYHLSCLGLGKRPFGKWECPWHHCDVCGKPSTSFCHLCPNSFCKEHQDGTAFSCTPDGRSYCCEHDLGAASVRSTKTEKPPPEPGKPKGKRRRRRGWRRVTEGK

Bcl-2-like protein 10 = Bcl-2-like protein 10 (Homo sapiens, UniProt Q9HD36); experiment: displacers of TR3 peptide from Bcl-B, primary screen, selectivity assay for Bfl-1 inhibitor project, biochemical, fluorescence polarization, FITC-TR3 peptide (AID 748);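 note: fluorescence polarization from a fluorescein-labelled TR3 peptide binding purified Bcl-B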
[3] = molecular target: T2, Carboxy-terminal domain RNA polymerase II polypeptide A small phosphatase 1 (Homo sapiens, UniProt Q9GZU7); experiment: inhibitors of CTDSP1, concentration-response testing, biochemical assay, absorbance-based, actives from ultra-high-throughput screening (AID 540297); type: functional
T2 sequence (Q9GZU7 whole entry): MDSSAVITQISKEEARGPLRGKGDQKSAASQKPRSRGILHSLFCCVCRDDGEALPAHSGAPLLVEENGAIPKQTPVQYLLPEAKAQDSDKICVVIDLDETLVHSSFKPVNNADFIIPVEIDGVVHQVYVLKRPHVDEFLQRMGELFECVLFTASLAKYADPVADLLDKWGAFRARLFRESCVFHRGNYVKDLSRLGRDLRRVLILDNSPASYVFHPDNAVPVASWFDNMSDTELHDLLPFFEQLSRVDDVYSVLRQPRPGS

[4] = NIH-3T3 fibroblast cytotoxicity, dose response, cytotoxicity control, cell-based, fluorescence, Alamar Blue, secondary assay (AID 2327); type: functional;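 note: NIH-3T3 mouse fibroblasts cultured with fluconazole at 8 µg/mL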
INS1 = experiment: beta cell apoptosis inhibitors, cytokine rescue, dose response, luminescence, retest (AID 449756); type: functional, cell-based; conditions: Rattus norvegicus;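 note: cell death triggered by IL-1 beta plus TNF-alpha plus IFN-gamma mixture; protective hits raise ATP signal compared with cytokine alone wells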
[5] = molecular target: G-protein coupled receptor 55 (Homo sapiens, UniProt Q9Y2T6); experiment: GPR55 antagonists blocking LPI-driven arrestin recruitment, primary screen, imaging, U2OS, beta-arrestin-GFP, LPI agonist (AID 2013); type: functional;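 note: antagonist potency measured as reduced agonist-driven arrestin aggregation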
[6] = molecular target: G-protein coupled receptor 35 (Homo sapiens, UniProt Q9HC97); experiment: GPR35 antagonists blocking zaprinast-driven arrestin recruitment, primary screen, imaging, U2OS, beta-arrestin-GFP, zaprinast agonist (AID 2058); type: functional;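 note: antagonist potency meaning inhibition of agonist-induced arrestin redistribution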
[7] = C. albicans growth with fluconazole, confirmation, fluorescence, retest (AID 2467); type: functional, cell-based
[8] = molecular target: T3, Voltage-gated N-type calcium channel alpha-1B subunit/Amyloid beta A4 precursor protein-binding family A member 1 (Homo sapiens, UniProt Q00975+Q02410); experiment: disruptors of Mint-PDZ/N-type channel peptide interaction – biochemical, HTRF, SAR follow-up (AID 2489); type: functional
[9] = molecular target: T3, Voltage-gated N-type calcium channel alpha-1B subunit/Amyloid beta A4 precursor protein-binding family A member 1; experiment: disruptors of Mint-PDZ/N-type channel peptide interaction – biochemical, HTRF, set 2, SAR follow-up (AID 434980); type: functional
[10] = molecular target: Glucose-6-phosphate 1-dehydrogenase (Homo sapiens, UniProt P11413); experiment: human G6PD enzyme inhibitors, dose response, selectivity assay for P. falciparum G6PD inhibitor project, biochemical, fluorescence (AID 504792); type: functional
[11] = molecular target: T3, Voltage-gated N-type calcium channel alpha-1B subunit/Amyloid beta A4 precursor protein-binding family A member 1; type: protein assay
[12] = molecular target: T3, Voltage-gated N-type calcium channel alpha-1B subunit/Amyloid beta A4 precursor protein-binding family A member 1; type: protein assay; remark: listed apart in the source
[13] = molecular target: Protein phosphatase methylesterase 1 (Homo sapiens, UniProt Q9Y570); experiment: PME-1 inhibitor potency by in-gel ABPP, dose response, selectivity assay for PME-1 inhibitor project, cell lysate, mouse brain cytosol, FP-rhodamine, panel member PME-1 Assay Panel member description: Inhibition of endogenously expressed PME-1 (AID 2366)
[14] = molecular target: T4, Mannose-6-phosphate isomerase (Homo sapiens, UniProt P34949); experiment: PMI enzyme inhibitors, confirmation, biochemical, fluorescence intensity (AID 1535)
T4 sequence (P34949 whole entry): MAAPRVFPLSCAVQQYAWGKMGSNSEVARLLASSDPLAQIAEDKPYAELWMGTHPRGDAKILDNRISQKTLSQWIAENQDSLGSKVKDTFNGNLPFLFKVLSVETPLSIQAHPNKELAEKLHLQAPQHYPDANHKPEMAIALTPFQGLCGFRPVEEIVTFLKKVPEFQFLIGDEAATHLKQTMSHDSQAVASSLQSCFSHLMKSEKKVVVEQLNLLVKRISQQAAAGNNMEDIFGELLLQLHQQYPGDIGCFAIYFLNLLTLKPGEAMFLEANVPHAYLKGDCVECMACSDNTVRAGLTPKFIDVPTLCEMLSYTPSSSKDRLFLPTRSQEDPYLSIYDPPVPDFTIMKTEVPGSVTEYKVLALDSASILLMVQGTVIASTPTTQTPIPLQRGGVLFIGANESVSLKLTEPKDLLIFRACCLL

Phosphomannomutase 2 = Phosphomannomutase 2 (Homo sapiens, UniProt O15305); experiment: Counter screen SAR assay for PMM2 inhibitors via a fluorescence intensity assay. [Related pubchem assays (depositor defined):AID1545, AID1574]
[15] = molecular target: Phosphoethanolamine/phosphocholine phosphatase (Homo sapiens, UniProt Q8TCT1); experiment: SAR assay for compounds that inhibit PHOSPHO1. [Related pubchem assays (depositor defined):AID1545, AID1565, AID1574]
[16] = cytotoxicity in BJeH fibroblasts, dose response, counter-screen for Ras selective lethality project, BJeH cells, dry powder (AID 493054); type: functional, cell-based
[17] = cytotoxicity in BJeHLT fibroblasts, dose response, counter-screen for Ras selective lethality project, BJeHLT cells, dry powder (AID 493052); type: functional, cell-based; conditions: Homo sapiens
[18] = viability loss in BJeLR (HRASV12) cells, primary screen, Ras selective lethality project, cell-based, Alamar Blue, dry powder (AID 493045); type: functional
[19] = viability loss in HRASV12 DRD fibroblasts, dose response, cell-based, DRD BJ fibroblasts, dry powder (AID 493049); type: functional

T3 sequence (Q00975 whole entry): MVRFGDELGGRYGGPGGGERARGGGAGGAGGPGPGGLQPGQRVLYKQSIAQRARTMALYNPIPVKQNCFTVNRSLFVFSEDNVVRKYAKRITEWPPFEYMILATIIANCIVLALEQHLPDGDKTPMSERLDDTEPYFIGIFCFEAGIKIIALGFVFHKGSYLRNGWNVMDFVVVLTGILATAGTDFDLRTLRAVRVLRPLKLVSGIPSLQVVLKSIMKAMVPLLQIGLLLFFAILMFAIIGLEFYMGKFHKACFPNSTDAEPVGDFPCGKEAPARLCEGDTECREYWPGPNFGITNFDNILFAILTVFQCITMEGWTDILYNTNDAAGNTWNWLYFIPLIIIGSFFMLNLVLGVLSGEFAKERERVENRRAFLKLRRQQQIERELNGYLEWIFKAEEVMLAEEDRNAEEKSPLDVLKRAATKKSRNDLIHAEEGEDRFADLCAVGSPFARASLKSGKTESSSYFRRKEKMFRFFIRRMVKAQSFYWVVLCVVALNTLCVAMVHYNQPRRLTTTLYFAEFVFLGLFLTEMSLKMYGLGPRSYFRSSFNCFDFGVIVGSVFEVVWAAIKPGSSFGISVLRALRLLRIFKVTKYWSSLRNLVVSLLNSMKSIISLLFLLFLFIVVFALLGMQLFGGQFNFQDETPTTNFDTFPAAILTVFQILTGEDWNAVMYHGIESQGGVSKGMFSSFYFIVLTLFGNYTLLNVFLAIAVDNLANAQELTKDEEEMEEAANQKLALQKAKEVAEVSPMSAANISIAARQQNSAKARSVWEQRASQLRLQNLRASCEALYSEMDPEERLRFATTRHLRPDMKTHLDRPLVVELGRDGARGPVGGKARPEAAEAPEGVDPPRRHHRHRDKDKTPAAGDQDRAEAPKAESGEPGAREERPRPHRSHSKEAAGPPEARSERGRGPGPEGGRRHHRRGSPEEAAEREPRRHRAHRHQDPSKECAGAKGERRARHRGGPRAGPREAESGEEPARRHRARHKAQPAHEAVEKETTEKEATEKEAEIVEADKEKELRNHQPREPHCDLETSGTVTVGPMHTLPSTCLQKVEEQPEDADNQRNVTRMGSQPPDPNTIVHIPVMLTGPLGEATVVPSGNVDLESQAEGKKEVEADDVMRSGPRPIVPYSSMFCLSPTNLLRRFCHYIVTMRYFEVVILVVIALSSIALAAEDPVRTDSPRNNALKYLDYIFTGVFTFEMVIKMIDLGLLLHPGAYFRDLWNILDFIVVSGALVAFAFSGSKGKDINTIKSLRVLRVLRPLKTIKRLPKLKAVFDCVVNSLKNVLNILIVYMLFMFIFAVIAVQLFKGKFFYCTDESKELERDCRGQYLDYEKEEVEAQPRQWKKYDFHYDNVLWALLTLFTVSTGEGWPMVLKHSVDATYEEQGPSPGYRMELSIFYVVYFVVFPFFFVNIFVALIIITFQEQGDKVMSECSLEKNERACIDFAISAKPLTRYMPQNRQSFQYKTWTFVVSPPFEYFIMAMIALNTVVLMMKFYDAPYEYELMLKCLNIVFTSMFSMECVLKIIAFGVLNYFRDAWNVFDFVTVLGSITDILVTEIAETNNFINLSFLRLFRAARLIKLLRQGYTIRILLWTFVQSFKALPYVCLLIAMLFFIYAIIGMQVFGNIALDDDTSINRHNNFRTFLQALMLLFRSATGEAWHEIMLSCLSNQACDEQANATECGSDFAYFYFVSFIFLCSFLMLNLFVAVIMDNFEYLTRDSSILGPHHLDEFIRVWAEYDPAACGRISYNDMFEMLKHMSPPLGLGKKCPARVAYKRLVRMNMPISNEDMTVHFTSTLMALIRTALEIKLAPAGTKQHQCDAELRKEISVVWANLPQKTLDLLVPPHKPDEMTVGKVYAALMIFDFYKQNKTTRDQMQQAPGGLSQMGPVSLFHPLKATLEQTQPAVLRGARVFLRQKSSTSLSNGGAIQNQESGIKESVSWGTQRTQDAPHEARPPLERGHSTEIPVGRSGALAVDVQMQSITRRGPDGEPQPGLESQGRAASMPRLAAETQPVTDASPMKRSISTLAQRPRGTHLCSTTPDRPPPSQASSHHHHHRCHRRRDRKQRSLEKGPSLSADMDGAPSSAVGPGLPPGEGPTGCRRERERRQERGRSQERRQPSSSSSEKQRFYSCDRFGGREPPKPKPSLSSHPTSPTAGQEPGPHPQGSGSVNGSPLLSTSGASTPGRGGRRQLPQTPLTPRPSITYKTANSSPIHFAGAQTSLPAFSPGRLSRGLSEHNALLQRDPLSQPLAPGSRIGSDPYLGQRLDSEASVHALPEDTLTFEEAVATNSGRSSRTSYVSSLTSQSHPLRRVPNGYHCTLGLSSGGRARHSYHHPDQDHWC
T3 sequence (Q02410 whole entry): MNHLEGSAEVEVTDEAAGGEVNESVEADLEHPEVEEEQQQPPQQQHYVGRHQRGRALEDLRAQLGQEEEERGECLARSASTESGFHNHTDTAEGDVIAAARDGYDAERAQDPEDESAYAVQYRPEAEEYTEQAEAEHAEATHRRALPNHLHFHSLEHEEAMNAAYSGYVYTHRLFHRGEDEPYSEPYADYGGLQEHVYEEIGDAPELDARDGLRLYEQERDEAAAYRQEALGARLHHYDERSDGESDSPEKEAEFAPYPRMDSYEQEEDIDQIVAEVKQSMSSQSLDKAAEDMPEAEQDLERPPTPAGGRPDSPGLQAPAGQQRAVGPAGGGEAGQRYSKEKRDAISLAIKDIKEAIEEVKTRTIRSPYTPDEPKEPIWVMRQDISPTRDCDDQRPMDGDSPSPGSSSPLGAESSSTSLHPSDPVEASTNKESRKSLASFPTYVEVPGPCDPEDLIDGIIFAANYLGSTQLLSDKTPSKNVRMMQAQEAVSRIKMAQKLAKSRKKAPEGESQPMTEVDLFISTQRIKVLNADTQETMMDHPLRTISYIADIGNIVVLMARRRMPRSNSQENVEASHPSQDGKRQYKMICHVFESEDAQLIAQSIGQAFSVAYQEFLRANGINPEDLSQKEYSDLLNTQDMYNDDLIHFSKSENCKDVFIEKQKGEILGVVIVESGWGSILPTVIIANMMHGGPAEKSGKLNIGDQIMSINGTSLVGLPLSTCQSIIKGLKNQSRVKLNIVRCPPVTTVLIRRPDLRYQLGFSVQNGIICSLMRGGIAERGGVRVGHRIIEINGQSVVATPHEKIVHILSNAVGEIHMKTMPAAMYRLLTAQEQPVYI
Sequence of Bifunctional protein GlmU (P9WMN3 whole entry): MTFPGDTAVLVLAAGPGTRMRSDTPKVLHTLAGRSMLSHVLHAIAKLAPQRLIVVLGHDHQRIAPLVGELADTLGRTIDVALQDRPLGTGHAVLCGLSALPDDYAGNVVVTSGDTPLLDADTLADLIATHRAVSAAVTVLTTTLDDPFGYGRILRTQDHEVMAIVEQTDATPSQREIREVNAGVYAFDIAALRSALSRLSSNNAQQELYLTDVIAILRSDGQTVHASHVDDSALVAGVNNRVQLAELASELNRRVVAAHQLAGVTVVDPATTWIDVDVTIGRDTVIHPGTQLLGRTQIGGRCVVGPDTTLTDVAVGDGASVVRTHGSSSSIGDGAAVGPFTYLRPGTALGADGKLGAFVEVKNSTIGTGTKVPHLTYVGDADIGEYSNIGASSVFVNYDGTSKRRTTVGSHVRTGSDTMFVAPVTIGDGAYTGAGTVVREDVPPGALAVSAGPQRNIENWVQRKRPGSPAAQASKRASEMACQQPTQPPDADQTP
Sequence of G-protein coupled receptor 35 (Q9HC97 whole entry): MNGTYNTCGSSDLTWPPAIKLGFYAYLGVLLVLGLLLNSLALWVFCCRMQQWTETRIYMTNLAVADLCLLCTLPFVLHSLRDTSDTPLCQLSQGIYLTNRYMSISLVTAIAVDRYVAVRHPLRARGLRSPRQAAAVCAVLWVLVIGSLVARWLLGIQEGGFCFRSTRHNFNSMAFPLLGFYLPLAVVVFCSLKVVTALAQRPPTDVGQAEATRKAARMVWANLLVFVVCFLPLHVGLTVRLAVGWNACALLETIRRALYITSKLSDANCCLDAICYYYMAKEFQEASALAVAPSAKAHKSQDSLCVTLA
Sequence of Protein phosphatase methylesterase 1 (Q9Y570 whole entry): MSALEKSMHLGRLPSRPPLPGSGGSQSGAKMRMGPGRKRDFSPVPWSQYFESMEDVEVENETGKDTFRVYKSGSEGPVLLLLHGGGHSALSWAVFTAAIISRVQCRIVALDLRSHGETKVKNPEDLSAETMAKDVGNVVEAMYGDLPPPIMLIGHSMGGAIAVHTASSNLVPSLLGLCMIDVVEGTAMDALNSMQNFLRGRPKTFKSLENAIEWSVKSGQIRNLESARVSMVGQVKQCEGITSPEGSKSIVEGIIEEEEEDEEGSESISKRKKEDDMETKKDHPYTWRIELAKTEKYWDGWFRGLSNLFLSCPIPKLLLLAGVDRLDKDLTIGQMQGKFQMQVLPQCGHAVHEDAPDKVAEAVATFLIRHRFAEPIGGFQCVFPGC
Sequence of Phosphomannomutase 2 (O15305 whole entry): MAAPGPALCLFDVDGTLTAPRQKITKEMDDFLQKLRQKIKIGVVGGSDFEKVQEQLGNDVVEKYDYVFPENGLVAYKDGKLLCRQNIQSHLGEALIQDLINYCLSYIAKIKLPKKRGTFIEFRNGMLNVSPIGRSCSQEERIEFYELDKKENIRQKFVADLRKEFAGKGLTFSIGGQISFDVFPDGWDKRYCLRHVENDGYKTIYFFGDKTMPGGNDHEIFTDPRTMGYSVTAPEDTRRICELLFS
Sequence of Bcl-2-like protein 10 (Q9HD36 whole entry, the tested form may be a part): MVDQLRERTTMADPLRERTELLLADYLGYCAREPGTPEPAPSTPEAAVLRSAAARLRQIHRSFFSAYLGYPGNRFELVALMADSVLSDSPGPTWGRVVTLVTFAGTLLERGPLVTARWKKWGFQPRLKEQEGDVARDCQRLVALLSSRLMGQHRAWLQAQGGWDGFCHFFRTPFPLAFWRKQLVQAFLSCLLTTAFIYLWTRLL

## O=C(c1coc(=O)c(Br)c1)N1CCOCC1
[1]
  IC50: 88.3 µM (active)
[2]
  AC50: 12.1 µM (active)
Bcl-2-like protein 10
  IC50: 34 µM (active)
[3]
  IC50: 7.34 µM (active)

## COc1ccc(C)cc1Nc1n[n+](-c2ccccc2)c(-c2ccc(N(C)C)cc2)s1
[4]
  EC50: > 150 µM (inactive)
INS1
  AC50: 2.53 µM (active)
[5]
  IC50: 3.42 µM (active)
[6]
  IC50: 3.54 µM (active)
[7]
  EC50: 2.27 µM (active)

## Cc1ccc(/C=C/C(=O)NCc2ccc(S(N)(=O)=O)cc2)o1
[8]
  IC50: 3.34 µM (active)
[9]
  IC50: 4.23 µM (active)
[10]
  IC50: > 80 µM (inactive)
[11]
  IC50: 8.37 µM (active)
[12]
  IC50: 3.12 µM (active)

## CCCCS(=O)(=O)n1cccc1/C=C(\C#N)S(C)(=O)=O
[13]
  IC50: > 20 µM (inactive)

## O=c1c2ccc(F)cc2sn1-c1cc(Cl)c(Cl)cc1Cl
[14]
  IC50: > 50 µM (inactive)
Phosphomannomutase 2
  IC50: > 100 µM (inactive)
[15]
  IC50: 0.563 µM (active)

## COc1ccc(N(C(=O)CCl)C(C(=O)NCCc2ccccc2)C(C)C)cc1Cl (configuration not stated)
[16]
  AC50: 1.81 µM (active)
[17]
  AC50: 1.3 µM (active)
[18]
  AC50: 0.895 µM (active)
[19]
  AC50: 0.887 µM (active)
